Source: patent US12201632B2, “Levoketoconazole for treatment of congenital adrenal hyperplasia and primary aldosteronism” (Strongbridge Dublin Limited, priority 2018, dated 2025)

What was measured:
[1] = tested on: ACTH independent hyperplasia cultures; assay: Cortisol production in primary ACTH independent hyperplasia cultures; type: cell-based, human; settings: 3 days
Experimental: (§1) To obtain primary cultures, adrenal specimens (adrenocortical adenomas, adrenal hyperplasias and adrenocortical carcinomas) were collected after adrenalectomy at the department of Surgery, Erasmus University Medical Center, Rotterdam, the Netherlands, between April 2016 and May 2018. The study was conducted under guidelines that have been approved by the Medical Ethics Committee of the Erasmus Medical Center and informed consent was obtained from all patients. Immediately after surgery, specimens were minced into small pieces of 2-3 mm^3, washed in culture medium and centrifuged for 5 minutes at 600 g. The tissue was stored overnight in culture medium at 4° C., where after the tissue was centrifuged again and the supernatant was removed. Fragments were dissociated using 10-25 ml collagenase type 1 (2 mg/ml: Sigma-Aldrich), followed by incubation at 37° C. for up to two hours. Ficoll (GE healthcare) density gradient separation was used once or twice as required in order to separate contaminating red blood cells from the tumor cells. Cell viability and cell amount were counted by trypan blue exclusion. Dissociated cells were plated at a density of 10^5 cells per well. […]
Cortisol concentrations were measured in the supernatant using a chemiluminescence immunoassay system (Immulite 2000XPi; Siemens DPC Inc., Los Angeles, Calif., USA). In addition, we carried out multi-steroid analysis by liquid chromatography/mass spectrometry (LC/MS-MS) to accurately quantify androstenedione, corticosterone, cortisol, 11-deoxycortisol, DHEA, DHEAS, progesterone, 17-hydroxyprogesterone, and testosterone. […] Steroids were quantified with respect to a calibration series, with internal standards. Steroids were quantified on a Xevo TQS LC-MS/MS (Waters Chromatography).
Statistical analysis was performed using Graphpad Prism 6.0 (Graphpad Software, San Diego, CA). […] Effects of both compounds on the steroid profile were measured as absolute change compared to control and compared using the Student's t-test. […]

HAC15 cells = assay: Steroid profile by LC/MS-MS in HAC15 cells; type: cell-based, Human; settings: 0.5 μM
Experimental: Human adrenocortical carcinoma HAC15 and mouse corticotroph AtT20 cells were used, purchased as a kind gift by Dr. W. Rainey, and obtained from Dr. J. Tooze (European Organization for Molecular Biology), respectively. Both cell lines were cultured in 75 cm^2 flasks at 37° C. in a humidified incubator (Greiner Bio-One, Alphen a/d Rijn, the Netherlands) at 5% CO2. Dulbecco's Modified Eagle Medium F12 containing 5% fetal calf serum was used for HAC15, whereas AtT20 cells were cultured in Dulbecco's minimal essential medium (DMEM) supplemented with 10% fetal calf serum. Both mediums were supplemented with L-glutamine (2 mmol/L) and penicillin (10^5 U/L). Short tandem repeat (str) profiling using a Powerplex Kit (Promega, Leiden, the Netherlands) of HAC15 and AtT20 gave results consistent with the ATCC database, confirming the identity of both cell lines. Medium and supplements were obtained from Invitrogen, Breda, the Netherlands. Once a week, cells were harvested with trypsin (0.05%)-EDTA (0.53 mM) and resuspended in culture medium. Levoketoconazole (COR-003) and racemic ketoconazole (both from Cortendo AB) were dissolved in absolute ethanol (EtOH), according to manufacturer's instructions, and stored at −20° C. at a stock concentration of […]. At the start of each experiment, both drugs were freshly prepared and diluted in EtOH in the correct concentrations. Synacten (synthetic ACTH, Novartis Pharma A.G.) stock concentration was stored at 4° C. and dissolved in culture medium at the day of use. The final concentrations of ACTH were chosen based on a dose-response curve in HAC15 cells and previously reported studies in the literature. For HAC15, 200,000 and 100,000 cells were plated in 0.5 ml medium in 24 well plates for experiments of 1 and 3 days, respectively. For AtT20, cell amounts were 100,000 and 30,000. One day after seeding the HAC15 cells, the medium was refreshed and cells were treated 1 or 3 days in quadruplicate with levoketoconazole or racemic ketoconazole (0.05-5 μM), with or without 10 nM ACTH. To study effects of both compounds on pituitary AtT20 cells, concentrations of 0.1 to 10 μM of both drugs were used. Controls were vehicle treated. […] Media were collected after 1 or 3 days of incubation and stored at −20° C. until analysis. All cell culture experiments were carried out at least twice.
Cortisol concentrations were measured in the supernatant using a chemiluminescence immunoassay system (Immulite 2000XPi; Siemens DPC Inc., Los Angeles, Calif., USA). In addition, we carried out multi-steroid analysis by liquid chromatography/mass spectrometry (LC/MS-MS) to accurately quantify androstenedione, corticosterone, cortisol, 11-deoxycortisol, DHEA, DHEAS, progesterone, 17-hydroxyprogesterone, and testosterone. Concentrations that were tested on the LC/MS-MS were closest to 50% inhibition or maximal inhibition of cortisol as determined by the immunoassay. Steroids were quantified with respect to a calibration series, with internal standards. Steroids were quantified on a Xevo TQS LC-MS/MS (Waters Chromatography).
Statistical analysis was performed using Graphpad Prism 6.0 (Graphpad Software, San Diego, CA). Non-linear regression curve fitting program was used to calculate the half maximal inhibitory concentrations (IC50) on cortisol production. Effects of both compounds on the steroid profile were measured as absolute change compared to control and compared using the Student's t-test. When assessing differences between effects of both compounds, the percentage change was evaluated and compared in order to correct for differences in the vehicle treated control cells. Values of P<0.05 were considered statistically significant and data are presented as mean SEM.

[2] = tested on: primary human corticotroph pituitary adenoma cultures; assay: Cell amount in primary corticotroph pituitary adenoma cultures; type: cell-based; settings: corticotroph pituitary adenoma primary culture no. 2, 1 μM, 7 days
Experimental: as §1
As a measure of cell number, DNA concentrations were determined using the bisbenzimide fluorescent dye (Hoechst 33258, Sigma Aldrich), as previously described.

`CC(=O)N1CCN(c2ccc(OCC3COC(Cn4ccnc4)(c4ccc(Cl)cc4Cl)O3)cc2)CC1` (racemic) [racemic ketoconazole, Ketoconazole] was tested, and the “IC50 inhibition of cortisol production” value ([1]; ACTH independent hyperplasia no. 1, basal condition) was “Ambiguous”, the IC50 ([1]; Homo sapiens, 72 h, ACTH independent hyperplasia no. 2, ACTH (85 μM) stimulated condition, read-out: IC50 inhibition of cortisol production) was 1390 nM and the “total sum of decrease of steroids” value (HAC15 cells; HAC15, ACTH) was −1,591 nmol/L. The “11-DOC absolute change vs ACTH stimulation with vehicle” value (HAC15 cells; HAC15, ACTH, 3 days) was -664.5 nmol/L, the “11-DOC percentage change vs ACTH stimulation with vehicle” value (HAC15 cells; HAC15, ACTH, 3 days) was “(−22%****)” and the “17-OHP absolute change vs ACTH stimulation with vehicle” value (HAC15 cells; HAC15, ACTH, 3 days) was -14.13 nmol/L. For the same molecule, the “17-OHP percentage change vs ACTH stimulation with vehicle” value (HAC15 cells; HAC15, ACTH, 3 days) was “(−29%***)”, the “Androstenedione absolute change vs ACTH stimulation with vehicle” value (HAC15 cells; HAC15, ACTH, 3 days) was -661.4 nmol/L and the “Androstenedione percentage change vs ACTH stimulation with vehicle” value (HAC15 cells; HAC15, ACTH, 3 days) was “(−40%*)”. The “Corticosterone absolute change vs ACTH stimulation with vehicle” value (HAC15 cells; HAC15, ACTH, 3 days) was -0.0125 nmol/L, the “Corticosterone percentage change vs ACTH stimulation with vehicle” value (HAC15 cells; HAC15, ACTH, 3 days) was “(−1.5%****)” and the “Cortisol absolute change vs ACTH stimulation with vehicle” value (HAC15 cells; HAC15, ACTH, 3 days) was -15.15 nmol/L. The “Cortisol percentage change vs ACTH stimulation with vehicle” value (HAC15 cells; HAC15, ACTH, 3 days) was “(−45%****)”, the “DHEA absolute change vs ACTH stimulation with vehicle” value (HAC15 cells; HAC15, ACTH, 3 days) was -17.04 nmol/L and the “DHEA percentage change vs ACTH stimulation with vehicle” value (HAC15 cells; HAC15, ACTH, 3 days) was “(−41%***)”. The “DHEAS absolute change vs ACTH stimulation with vehicle” value (HAC15 cells; HAC15, ACTH, 3 days) was -197.4 nmol/L, the “DHEAS percentage change vs ACTH stimulation with vehicle” value (HAC15 cells; HAC15, ACTH, 3 days) was “(−35%)” and the “Prog absolute change vs ACTH stimulation with vehicle” value (HAC15 cells; HAC15, ACTH, 3 days) was -0.9625 nmol/L. For the same molecule, the “Prog percentage change vs ACTH stimulation with vehicle” value (HAC15 cells; HAC15, ACTH, 3 days) was “(−30%****)”, the “Testosterone absolute change vs ACTH stimulation with vehicle” value (HAC15 cells; HAC15, ACTH, 3 days) was -20.29 nmol/L and the “Testosterone percentage change vs ACTH stimulation with vehicle” value (HAC15 cells; HAC15, ACTH, 3 days) was “(−50%****)”. For the same molecule, the “11-DOC absolute change vs control” value (HAC15 cells; HAC15, Basal, 3 days) was -521.2 nmol/L, the “11-DOC percentage change vs control” value (HAC15 cells; HAC15, Basal, 3 days) was “(−23%****)” and the “17-OHP absolute change vs control” value (HAC15 cells; HAC15, Basal, 3 days) was -16.50 nmol/L. The “17-OHP percentage change vs control” value (HAC15 cells; HAC15, Basal, 3 days) was “(−37%****)”, the “Androstenedione absolute change vs control” value (HAC15 cells; HAC15, Basal, 3 days) was -809.0 nmol/L and the “Androstenedione percentage change vs control” value (HAC15 cells; HAC15, Basal, 3 days) was “(−47%**)”. The “Corticosterone absolute change vs control” value (HAC15 cells; HAC15, Basal, 3 days) was “+0.1750 nmol/l”, the “Corticosterone percentage change vs control” value (HAC15 cells; HAC15, Basal, 3 days) was “(+19%****)” and the “Cortisol absolute change vs control” value (HAC15 cells; HAC15, Basal, 3 days) was -10.93 nmol/L. The “Cortisol percentage change vs control” value (HAC15 cells; HAC15, Basal, 3 days) was “(−47%****)”, the “DHEA absolute change vs control” value (HAC15 cells; HAC15, Basal, 3 days) was -39.50 nmol/L and the “DHEA percentage change vs control” value (HAC15 cells; HAC15, Basal, 3 days) was “(−56%**)”. For the same molecule, the “DHEAS absolute change vs control” value (HAC15 cells; HAC15, Basal, 3 days) was -496.4 nmol/L, the “DHEAS percentage change vs control” value (HAC15 cells; HAC15, Basal, 3 days) was “(−44%*)” and the “Prog absolute change vs control” value (HAC15 cells; HAC15, Basal, 3 days) was -0.3125 nmol/L. For the same molecule, the “Prog percentage change vs control” value (HAC15 cells; HAC15, Basal, 3 days) was “(−19%****)”, the “Testosterone absolute change vs control” value (HAC15 cells; HAC15, Basal, 3 days) was -25.78 nmol/L and the “Testosterone percentage change vs control” value (HAC15 cells; HAC15, Basal, 3 days) was “(−58%***)”. For the same molecule, the “total sum of decrease of steroids” value (HAC15 cells; HAC15, basal) was −1,919 nmol/L and the “effect on cell number” value [2] was “not observed”.
